Assay results: ChEMBL document CHEMBL3044672, “N9- and N7-(Chloromethyl Phenymethyl)Chloropurine Derivatives from , '-Dichloroxylenes: Synthesis and Anticancer Activity” (2005)

Legend:
Type in all cases: functional
OVCAR-5 = test: Cytotoxicity against Homo sapiens (human) OVCAR5 cells after 48 hr by sulforhodamine B assay; conditions: OVCAR-5, 48 h; for CC50: read-out: LC50 (the source's name)
OVCAR-4 = test: Cytotoxicity against Homo sapiens (human) OVCAR4 cells after 48 hr by sulforhodamine B assay; conditions: OVCAR-4, 48 h
IGROV-1 = test: Cytotoxicity against Homo sapiens (human) IGROV1 cells after 48 hr by sulforhodamine B assay; conditions: IGROV-1, 48 h
OVCAR-3 = test: Cytotoxicity against Homo sapiens (human) OVCAR3 cells after 48 hr by sulforhodamine B assay; conditions: OVCAR-3, 48 h
SK-MEL-5 = test: Cytotoxicity against Homo sapiens (human) SK-MEL-5 cells after 48 hr by sulforhodamine B assay; conditions: SK-MEL-5, 48 h
SK-MEL-2 = test: Cytotoxicity against Homo sapiens (human) SK-MEL-2 cells after 48 hr by sulforhodamine B assay; conditions: SK-MEL-2, 48 h
SNB-75 = test: Cytotoxicity against Homo sapiens (human) SNB75 cells after 48 hr by sulforhodamine B assay; conditions: SNB-75, 48 h
T47D = test: Cytotoxicity against Homo sapiens (human) T47D cells after 48 hr by sulforhodamine B assay
MDA-MB-435 = test: Cytotoxicity against Homo sapiens (human) MDA-MB-435 cells after 48 hr by sulforhodamine B assay; conditions: MDA-MB-435, 48 h
Hs-578T = test: Cytotoxicity against Homo sapiens (human) Hs 578T cells after 48 hr by sulforhodamine B assay
MDA-MB-231 = test: Cytotoxicity against Homo sapiens (human) MDA-MB-231 cells after 48 hr by sulforhodamine B assay; conditions: MDA-MB-231, 48 h
DU-145 = test: Cytotoxicity against Homo sapiens (human) DU145 cells after 48 hr by sulforhodamine B assay; conditions: DU-145, 48 h
MCF7 = test: Cytotoxicity against Homo sapiens (human) MCF7 cells after 48 hr by sulforhodamine B assay; conditions: MCF7, 48 h
PC-3 = test: Cytotoxicity against Homo sapiens (human) PC3 cells after 48 hr by sulforhodamine B assay; conditions: PC-3, 48 h
TK-10 = test: Cytotoxicity against Homo sapiens (human) TK10 cells after 48 hr by sulforhodamine B assay; conditions: TK-10, 48 h; for CC50: read-out: LC50 (the source's name)
RXF 393 = test: Cytotoxicity against Homo sapiens (human) RXF393 cells after 48 hr by sulforhodamine B assay; conditions: RXF 393, 48 h
SF-295 = test: Cytotoxicity against Homo sapiens (human) SF295 cells after 48 hr by sulforhodamine B assay; conditions: SF-295, 48 h; for CC50: read-out: LC50 (the source's name)
SW-620 = test: Cytotoxicity against Homo sapiens (human) SW620 cells after 48 hr by sulforhodamine B assay; conditions: SW-620, 48 h; for CC50: read-out: LC50 (the source's name)
KM12 = test: Cytotoxicity against Homo sapiens (human) KM12 cells after 48 hr by sulforhodamine B assay; conditions: KM12, 48 h; for CC50: read-out: LC50 (the source's name)
HT-29 = test: Cytotoxicity against Homo sapiens (human) HT-29 cells after 48 hr by sulforhodamine B assay; conditions: HT-29, 48 h
HCT-116 = test: Cytotoxicity against Homo sapiens (human) HCT116 cells after 48 hr by sulforhodamine B assay; conditions: HCT-116, 48 h; for CC50: read-out: LC50 (the source's name)
HCC 2998 = test: Cytotoxicity against Homo sapiens (human) HCC2998 cells after 48 hr by sulforhodamine B assay; conditions: HCC 2998, 48 h; for CC50: read-out: LC50 (the source's name)
COLO 205 = test: Cytotoxicity against Homo sapiens (human) COLO205 cells after 48 hr by sulforhodamine B assay; conditions: COLO 205, 48 h
NCI-H460 = test: Cytotoxicity against Homo sapiens (human) NCI-H460 cells after 48 hr by sulforhodamine B assay; conditions: NCI-H460, 48 h; for CC50: read-out: LC50 (the source's name)
NCI-H322M = test: Cytotoxicity against Homo sapiens (human) NCI-H322M cells after 48 hr by sulforhodamine B assay; conditions: for CC50: read-out: LC50 (the source's name)
HOP-62 = test: Cytotoxicity against Homo sapiens (human) HOP62 cells after 48 hr by sulforhodamine B assay; conditions: HOP-62, 48 h; for CC50: read-out: LC50 (the source's name)
EKVX = test: Cytotoxicity against Homo sapiens (human) EKVX cells after 48 hr by sulforhodamine B assay; conditions: for CC50: read-out: LC50 (the source's name)
RPMI-8226 = test: Cytotoxicity against Homo sapiens (human) RPMI8226 cells after 48 hr by sulforhodamine B assay; conditions: RPMI-8226, 48 h
MOLT-4 = test: Cytotoxicity against Homo sapiens (human) MOLT4 cells after 48 hr by sulforhodamine B assay; conditions: MOLT-4, 48 h; for CC50: read-out: LC50 (the source's name)
SF-268 = test: Cytotoxicity against Homo sapiens (human) SF268 cells assessed as cell growth at 10^-4 M after 48 hr by […] assay; conditions: SF-268, 48 h, read-out: Activity
SK-OV-3 = test: Cytotoxicity against Homo sapiens (human) SKOV3 cells after 48 hr by sulforhodamine B assay; conditions: SK-OV-3, 48 h
[1] = read-out: LC50 (the source's name)

## ClCc1cccc(Cn2cnc3nc(Cl)nc(Cl)c32)c1
OVCAR-5
  GI50: 1.69 µM
  TGI: 3.23 µM
  CC50: 6.3 µM
OVCAR-4
  GI50: 1.58 µM
  LC50 (concentration killing 50% of cells): 5.37 µM
  TGI: 2.95 µM
IGROV-1
  GI50: 17 µM
  LC50: 55 µM
  TGI: 30.9 µM
OVCAR-3
  GI50: 1.51 µM
  LC50: 5.37 µM
  TGI: 2.88 µM
SK-MEL-5
  GI50: 1.2 µM
  LC50: 4.89 µM
  TGI: 2.45 µM
SK-MEL-2
  GI50: 1.77 µM
  LC50 (concentration killing 50% of cells): 7.76 µM
  TGI: 3.71 µM
SNB-75
  GI50: 1.09 µM
  TGI: 2.29 µM
SNB-75; [1]
  CC50: 4.78 µM
T47D
  GI50: 0.22 µM
  LC50: > 100 µM
  TGI: 0.61 µM
MDA-MB-435
  GI50: 1.47 µM
  LC50: 5.24 µM
  TGI: 2.81 µM
Hs-578T
  GI50: 1.41 µM
  TGI: 2.81 µM
MDA-MB-231
  GI50: 0.46 µM
  LC50: 4.16 µM
  TGI: 1.73 µM
DU-145
  GI50: 0.14 µM
  LC50: 0.52 µM
  TGI: 0.26 µM
MCF7
  GI50: 1.51 µM
  LC50 (concentration killing 50% of cells): > 100 µM
  TGI: 4.07 µM
PC-3
  GI50: 1.54 µM
  LC50 (concentration causing 50% cell kill): 5.37 µM
  TGI: 2.88 µM
TK-10
  GI50: 16.6 µM
  TGI: 30.2 µM
  CC50: 55 µM
RXF 393
  GI50: 1.34 µM
  TGI: 2.63 µM
RXF 393; [1]
  CC50: 5.12 µM
SF-295
  GI50: 1.86 µM
  TGI: 3.38 µM
  CC50: 6.3 µM
SW-620
  GI50: 0.41 µM
  TGI: 1.65 µM
  CC50: 4.07 µM
KM12
  GI50: 16.6 µM
  TGI: 35.5 µM
  CC50: 74.1 µM
HT-29
  GI50: 0.34 µM
HCT-116
  GI50: 0.75 µM
  TGI: 1.99 µM
  CC50: 4.46 µM
HCC 2998
  GI50: 1.9 µM
  TGI: 3.31 µM
  CC50: 5.75 µM
COLO 205
  GI50: 0.41 µM
  TGI: 1.65 µM
NCI-H460
  GI50: 1.69 µM
  TGI: 3.09 µM
  CC50: 5.49 µM
NCI-H322M
  GI50: 14.1 µM
  TGI: 26.9 µM
  CC50: 52.5 µM
HOP-62
  GI50: 2.18 µM
  TGI: 3.63 µM
  CC50: 6.02 µM
EKVX
  GI50: 0.93 µM
  TGI: 2.13 µM
  CC50: 4.57 µM
RPMI-8226
  GI50: 1.69 µM
  TGI: 4.16 µM
RPMI-8226; [1]
  CC50: > 100 µM
MOLT-4
  GI50: 1.04 µM
  TGI: 2.29 µM
  CC50: 5.01 µM
SF-268
  growth at 100 µM: 0%

## ClCc1ccccc1Cn1cnc2c(Cl)nc(Cl)nc21
SK-OV-3
  GI50: 1.82 µM
  LC50: 6.91 µM
  TGI: 3.54 µM
OVCAR-5
  GI50: 1.58 µM
  TGI: 2.95 µM
  CC50: 5.62 µM
OVCAR-4
  GI50: 1.77 µM
  TGI: 3.63 µM
IGROV-1
  GI50: 1.54 µM
  LC50: 7.07 µM
  TGI: 3.31 µM
OVCAR-3
  GI50: 0.21 µM
  LC50: 1.54 µM
  TGI: 0.51 µM
SK-MEL-5
  GI50: 0.42 µM
  LC50: 4.26 µM
  TGI: 1.54 µM
SK-MEL-2
  GI50: 2.18 µM
  LC50 (concentration killing 50% of cells): 8.51 µM
  TGI: 4.36 µM
SNB-75
  GI50: 1.54 µM
  TGI: 3.54 µM
T47D
  GI50: 1.99 µM
  LC50: > 100 µM
  TGI: 5.49 µM
MDA-MB-435
  GI50: 1.62 µM
  LC50: 6.45 µM
  TGI: 3.23 µM
Hs-578T
  GI50: 1.17 µM
  LC50: > 100 µM
  TGI: 3.54 µM
MDA-MB-231
  GI50: 0.33 µM
  LC50: 3.98 µM
  TGI: 1.38 µM
DU-145
  GI50: 0.13 µM
  LC50: 6.31 µM
  TGI: 2.95 µM
MCF7
  GI50: 0.81 µM
  LC50 (concentration killing 50% of cells): > 100 µM
  TGI: 1.82 µM
PC-3
  GI50: 0.44 µM
  LC50 (concentration causing 50% cell kill): 5.12 µM
  TGI: 1.62 µM
TK-10
  GI50: 1.45 µM
  TGI: 2.88 µM
  CC50: 5.62 µM
RXF 393
  GI50: 0.1 µM
  TGI: 0.49 µM
SF-295
  GI50: 1.9 µM
  TGI: 3.38 µM
  CC50: 6.02 µM
SW-620
  GI50: 0.15 µM
  TGI: 0.35 µM
  CC50: 0.81 µM
KM12
  GI50: 1.47 µM
  TGI: 2.95 µM
  CC50: 5.88 µM
HT-29
  GI50: 0.42 µM
  TGI: > 100 µM
HT-29; [1]
  CC50: > 100 µM
HCT-116
  GI50: 0.19 µM
  TGI: 0.38 µM
  CC50: 0.75 µM
HCC 2998
  TGI: 3.38 µM
  CC50: 6.16 µM
NCI-H460
  GI50: 3.31 µM
  TGI: 8.71 µM
  CC50: > 100 µM
NCI-H322M
  GI50: 1.73 µM
  TGI: 3.27 µM
  CC50: 5.88 µM
HOP-62
  GI50: 2.04 µM
  TGI: 3.63 µM
  CC50: 6.45 µM
EKVX
  GI50: 1.77 µM
  TGI: 3.23 µM
  CC50: 5.88 µM
RPMI-8226
  GI50: 0.38 µM
  TGI: 1.54 µM
MOLT-4
  GI50: 0.2 µM
  TGI: 0.63 µM
  CC50: 3.54 µM
SF-268
  growth at 100 µM: 0%
